pIC50: −log10 of the molar value. Values belong to the compound of their own block, whether it stands above or below them. Calls of active or inactive are those of the source. The rule behind the calls is not given here.
Legend:
Collagenase 3 [1] = target: T1, Collagenase 3 (Homo sapiens, UniProt P45452); test: Inhibition of MMP13 (unknown origin) using (7-methoxycoumarin-4-yl) acetyl pro-Leu-Gly-Leu-[3-(2,4-dinitrophenyl)-L-2,3-diamino-propionyl]-Ala-Arg-NH2 as substrate preincubated for 30 mins followed by substrate addition by microplate reader analysis
[2] = target: T2, Matrix metalloproteinase-9 (Homo sapiens, UniProt P14780); test: Inhibition of human MMP9 using (7-methoxycoumarin-4-yl) acetyl pro-Leu-Gly-Leu-[3-(2,4-dinitrophenyl)-L-2,3-diamino-propionyl]-Ala-Arg-NH2 as substrate preincubated for 30 mins followed by substrate addition by microplate reader analysis
[3] = target: T3, 72 kDa type IV collagenase (Homo sapiens, UniProt P08253); test: Inhibition of human MMP2 using (7-methoxycoumarin-4-yl) acetyl pro-Leu-Gly-Leu-[3-(2,4-dinitrophenyl)-L-2,3-diamino-propionyl]-Ala-Arg-NH2 as substrate preincubated for 30 mins followed by substrate addition by microplate reader analysis
Target sequence in this assay (P08253 whole entry): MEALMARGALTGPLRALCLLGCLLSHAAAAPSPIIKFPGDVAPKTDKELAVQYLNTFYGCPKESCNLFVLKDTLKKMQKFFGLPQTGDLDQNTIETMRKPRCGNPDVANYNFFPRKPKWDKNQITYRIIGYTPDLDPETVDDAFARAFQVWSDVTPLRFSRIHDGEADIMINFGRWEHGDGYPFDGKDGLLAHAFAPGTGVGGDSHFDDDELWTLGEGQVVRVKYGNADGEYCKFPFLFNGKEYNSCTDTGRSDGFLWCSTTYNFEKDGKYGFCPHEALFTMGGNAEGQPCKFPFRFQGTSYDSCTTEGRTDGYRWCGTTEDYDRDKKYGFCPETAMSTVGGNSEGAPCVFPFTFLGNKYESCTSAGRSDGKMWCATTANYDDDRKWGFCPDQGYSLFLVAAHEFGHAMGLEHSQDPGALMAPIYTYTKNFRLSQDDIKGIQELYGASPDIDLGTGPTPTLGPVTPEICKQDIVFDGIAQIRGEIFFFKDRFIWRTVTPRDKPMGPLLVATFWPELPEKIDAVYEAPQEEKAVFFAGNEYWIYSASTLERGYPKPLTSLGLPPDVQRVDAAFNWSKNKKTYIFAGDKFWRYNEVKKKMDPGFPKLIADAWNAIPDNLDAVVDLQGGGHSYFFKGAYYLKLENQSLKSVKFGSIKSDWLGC

Neutrophil collagenase [4] = target: T4, Neutrophil collagenase (Homo sapiens, UniProt P22894); test: Inhibition of MMP8 (unknown origin) using (7-methoxycoumarin-4-yl) acetyl pro-Leu-Gly-Leu-[3-(2,4-dinitrophenyl)-L-2,3-diamino-propionyl]-Ala-Arg-NH2 as substrate preincubated for 30 mins followed by substrate addition by microplate reader analysis
Target sequence in this assay (P22894 whole entry): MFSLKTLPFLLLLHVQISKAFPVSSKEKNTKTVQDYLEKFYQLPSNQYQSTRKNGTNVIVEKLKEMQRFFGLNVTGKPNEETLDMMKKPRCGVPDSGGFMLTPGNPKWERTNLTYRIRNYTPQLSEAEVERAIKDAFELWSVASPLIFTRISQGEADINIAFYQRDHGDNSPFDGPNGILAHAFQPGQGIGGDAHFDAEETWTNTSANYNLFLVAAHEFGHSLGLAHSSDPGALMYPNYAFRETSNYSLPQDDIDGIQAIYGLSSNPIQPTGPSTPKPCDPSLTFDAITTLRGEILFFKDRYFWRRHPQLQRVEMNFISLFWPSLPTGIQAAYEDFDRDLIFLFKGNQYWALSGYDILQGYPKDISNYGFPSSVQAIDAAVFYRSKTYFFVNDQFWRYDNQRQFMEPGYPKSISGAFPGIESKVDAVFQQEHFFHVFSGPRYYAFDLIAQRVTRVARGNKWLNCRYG

Collagenase 3 [5] = target: T1, Collagenase 3; test: Inhibition of MMP13 (unknown origin) up to 100 uM using (7-methoxycoumarin-4-yl) acetyl pro-Leu-Gly-Leu-[3-(2,4-dinitrophenyl)-L-2,3-diamino-propionyl]-Ala-Arg-NH2 as substrate preincubated for 30 mins followed by substrate addition by microplate reader analysis
Neutrophil collagenase [6] = target: T4, Neutrophil collagenase; test: Inhibition of MMP8 (unknown origin) up to 100 uM using (7-methoxycoumarin-4-yl) acetyl pro-Leu-Gly-Leu-[3-(2,4-dinitrophenyl)-L-2,3-diamino-propionyl]-Ala-Arg-NH2 as substrate preincubated for 30 mins followed by substrate addition by microplate reader analysis
Target sequence in this assay (P22894 101-467 limits assumed): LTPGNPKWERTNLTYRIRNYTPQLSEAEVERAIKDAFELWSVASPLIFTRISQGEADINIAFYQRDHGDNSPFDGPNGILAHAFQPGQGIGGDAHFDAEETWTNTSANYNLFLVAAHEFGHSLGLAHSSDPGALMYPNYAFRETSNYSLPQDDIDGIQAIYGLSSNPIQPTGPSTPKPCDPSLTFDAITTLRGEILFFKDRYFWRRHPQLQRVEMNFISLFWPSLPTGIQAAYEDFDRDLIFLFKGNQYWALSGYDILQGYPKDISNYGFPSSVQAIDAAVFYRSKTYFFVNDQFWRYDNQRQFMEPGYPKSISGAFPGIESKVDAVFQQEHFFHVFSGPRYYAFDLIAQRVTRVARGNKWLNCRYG

[7] = target: T3, 72 kDa type IV collagenase; test: Inhibition of human MMP2 up to 100 uM using (7-methoxycoumarin-4-yl) acetyl pro-Leu-Gly-Leu-[3-(2,4-dinitrophenyl)-L-2,3-diamino-propionyl]-Ala-Arg-NH2 as substrate preincubated for 30 mins followed by substrate addition by microplate reader analysis
Target sequence in this assay (P08253 110-660 limits assumed): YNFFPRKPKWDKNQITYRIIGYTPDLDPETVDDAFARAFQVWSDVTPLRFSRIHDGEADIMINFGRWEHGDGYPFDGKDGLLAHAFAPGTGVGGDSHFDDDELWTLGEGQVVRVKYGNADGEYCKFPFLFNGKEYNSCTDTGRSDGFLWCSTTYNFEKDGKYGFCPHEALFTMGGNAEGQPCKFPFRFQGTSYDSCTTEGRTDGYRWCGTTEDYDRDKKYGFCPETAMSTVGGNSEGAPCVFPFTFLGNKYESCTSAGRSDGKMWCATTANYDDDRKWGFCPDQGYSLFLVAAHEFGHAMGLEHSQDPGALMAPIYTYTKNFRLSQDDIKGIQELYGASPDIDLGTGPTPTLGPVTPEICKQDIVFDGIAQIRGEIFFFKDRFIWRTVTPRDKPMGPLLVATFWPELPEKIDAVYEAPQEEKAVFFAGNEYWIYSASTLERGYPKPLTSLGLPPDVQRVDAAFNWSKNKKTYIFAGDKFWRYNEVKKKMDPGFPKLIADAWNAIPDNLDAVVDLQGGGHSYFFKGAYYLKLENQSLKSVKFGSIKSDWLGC

[8] = target: T2, Matrix metalloproteinase-9; test: Inhibition of human MMP9 up to 100 uM using (7-methoxycoumarin-4-yl) acetyl pro-Leu-Gly-Leu-[3-(2,4-dinitrophenyl)-L-2,3-diamino-propionyl]-Ala-Arg-NH2 as substrate preincubated for 30 mins followed by substrate addition by microplate reader analysis

T2 sequence (P14780 whole entry): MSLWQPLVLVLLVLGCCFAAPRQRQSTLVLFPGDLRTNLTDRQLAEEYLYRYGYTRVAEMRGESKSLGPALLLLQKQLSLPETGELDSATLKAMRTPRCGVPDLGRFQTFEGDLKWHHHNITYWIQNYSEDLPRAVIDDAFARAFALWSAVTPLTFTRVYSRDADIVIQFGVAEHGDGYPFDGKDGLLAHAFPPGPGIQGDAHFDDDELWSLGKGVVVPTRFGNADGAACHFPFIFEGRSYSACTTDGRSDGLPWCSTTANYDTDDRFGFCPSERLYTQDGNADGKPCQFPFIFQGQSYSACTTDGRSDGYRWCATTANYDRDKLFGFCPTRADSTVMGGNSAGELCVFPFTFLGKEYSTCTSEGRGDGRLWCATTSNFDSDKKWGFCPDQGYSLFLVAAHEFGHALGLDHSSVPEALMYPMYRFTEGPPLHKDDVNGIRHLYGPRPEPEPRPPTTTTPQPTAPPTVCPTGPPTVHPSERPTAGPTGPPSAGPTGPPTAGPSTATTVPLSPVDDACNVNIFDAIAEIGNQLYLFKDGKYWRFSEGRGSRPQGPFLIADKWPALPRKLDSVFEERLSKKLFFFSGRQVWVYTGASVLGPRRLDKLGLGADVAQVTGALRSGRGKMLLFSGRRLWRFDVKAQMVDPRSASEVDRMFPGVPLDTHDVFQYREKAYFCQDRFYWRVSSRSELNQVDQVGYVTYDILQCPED

Structure (SMILES): COCc1ccc(-c2ccc(S(=O)(=O)NC(C(C)C)P(=O)(O)O)cc2)s1 (stereo not given)
- pIC50 (Collagenase 3 [1]): < 4.00
- pIC50 [2]: < 4.00
- pIC50 [3]: < 4.00
- pIC50 (Neutrophil collagenase [4]): < 4.00

Structure (SMILES): COc1ccc(S(=O)(=O)N(Cc2cccnc2)C(CC(C)C)P(=O)(O)O)cc1 (stereo not given)
- inhibition (Collagenase 3 [5]): inactive
- inhibition (Neutrophil collagenase [6]): inactive
- inhibition [7]: inactive
- inhibition [8]: inactive

Structure (SMILES): COc1ccc(S(=O)(=O)N(Cc2ccccc2)C(C(C)C)P(=O)(O)O)cc1 (stereo not given)
- inhibition (Collagenase 3 [5]): inactive
- inhibition (Neutrophil collagenase [6]): inactive
- inhibition [7]: inactive
- inhibition [8]: inactive

Structure (SMILES): COc1ccc(S(=O)(=O)N(Cc2cccnc2)C(C(C)C)P(=O)(O)O)cc1 (stereo not given)
- inhibition (Collagenase 3 [5]): inactive
- inhibition (Neutrophil collagenase [6]): inactive
- inhibition [7]: inactive
- inhibition [8]: inactive

Structure (SMILES): Cc1ccc(-c2ccc(S(=O)(=O)NC(C(C)C)P(=O)(O)O)cc2)s1 (stereo not given)
- pIC50 (Collagenase 3 [1]): < 4.00
- pIC50 [2]: < 4.00
- pIC50 [3]: < 4.00
- pIC50 (Neutrophil collagenase [4]): < 4.00

Structure (SMILES): COc1ccc(S(=O)(=O)N(Cc2ccccc2)C(CC(C)C)P(=O)(O)O)cc1 (stereo not given)
- inhibition (Collagenase 3 [5]): inactive
- inhibition (Neutrophil collagenase [6]): inactive
- inhibition [7]: inactive
- inhibition [8]: inactive

Next, values leading:

- pIC50 (Collagenase 3 [1]): 7.03
- pIC50 [2]: < 4.00
- pIC50 [3]: 6.10
- pIC50 (Neutrophil collagenase [4]): 7.37
Structure (SMILES): COc1ccc(-c2ccc(S(=O)(=O)N[C@H](CCCCCF)P(=O)(O)O)cc2)cc1

- pIC50 (Collagenase 3 [1]): 8.66
- pIC50 [2]: 8.05
- pIC50 [3]: 8.03
Structure (SMILES): COc1ccc(-c2ccc(S(=O)(=O)NC(C(C)C)P(=O)(O)O)cc2)cc1 (racemic)

- pIC50 (Collagenase 3 [1]): 8.62
- pIC50 [2]: 7.73
- pIC50 [3]: 7.93
Structure (SMILES): CC(C)C(NS(=O)(=O)c1ccc(-c2ccc(OCCF)cc2)cc1)P(=O)(O)O (stereo not given)

- pIC50 (Collagenase 3 [1]): 8.27
- pIC50 [2]: 7.72
- pIC50 [3]: 8.19
Structure (SMILES): COc1ccc(-c2ccc(S(=O)(=O)N[C@@H](CCCCCF)P(=O)(O)O)cc2)cc1

- pIC50 (Collagenase 3 [1]): 5.99
- pIC50 [2]: 6.41
- pIC50 [3]: 6.20
- pIC50 (Neutrophil collagenase [4]): < 4.00
Structure (SMILES): CC(C)C(NS(=O)(=O)c1ccc(-c2ccc(F)nc2)cc1)P(=O)(O)O (stereo not given)

- pIC50 (Collagenase 3 [1]): 7.14
- pIC50 [2]: 7.02
- pIC50 [3]: 7.25
- pIC50 (Neutrophil collagenase [4]): 7.08
Structure (SMILES): CC(C)C(N(Cc1ccccc1)S(=O)(=O)c1ccc(-c2ccc(OCCF)cc2)cc1)P(=O)(O)O (stereo not given)

From ChEMBL document CHEMBL3751799, “Fluorinated matrix metalloproteinases inhibitors--Phosphonate based potential probes for positron emission tomography” (Bioorg Med Chem, 2016)
